PubChem BioAssay AID623910 (NMMLSC, 2012)

Tested on: mouse and human plasma, RED dialysis, LC/MS/MS, 4 h
Test: plasma protein binding, mouse and human, late-stage follow-up, ADME assay for GPR30 and estrogen receptor ligands, biochemical (AID 623910)

plasma protein binding (at 1 µM): 99.8% | plasma protein binding (human plasma binding, at 10 µM): 99.8% | plasma protein binding (mouse plasma binding, at 1 µM): 99.8% | plasma protein binding (mouse plasma binding, at 10 µM): 99.5%
SMILES: CC(=O)c1ccc2c(c1)[C@@H]1C=CC[C@@H]1[C@H](c1cc3c(cc1Br)OCO3)N2
